Reference: patent publication US9919941B2, “Multiple uses of amine salts for industrial water treatment” (AMSA, Inc., priority 2012, dated 2018)
“And” between values parts separate entries of the source, which are not always exact repeats. Equal values may be shown once. Read-outs that look alike come from different tables or passages of the source.

How the values were obtained:
[1] = calcium carbonate scale inhibition (conductometric titration, supersaturation ratio Sr)
Procedure: To a 100 mL beaker were added 60 mL of HPLC-grade water and 3 mL of 0.1 M calcium chloride. An appropriate amount (0.5-4 mL) of an aqueous solution of the inhibitor compound of Formula (I) to be tested was then added. The solution was magnetically stirred at a constant speed for all experiments. The sample was then titrated with 0.1 M sodium carbonate. After addition of each 0.2 mL aliquot of sodium carbonate titrant, the solution was mixed for 1 min and then the conductivity of the solution measured.
As titrant is added the conductivity increases in a linear fashion. When the supersaturation point is reached, the conductivity decreases and precipitation begins. This is considered the endpoint of the titration. The resulting titration endpoint volumes are used to calculate a relative supersaturation ratio (Sr). This is the ratio of the supersaturation of calcium carbonate in the presence of the compound of Formula (I) being tested to the value of the supersaturation of water without inhibitor (distilled water plus 3 mL of 0.1 M calcium chloride). Thus, compounds with Sr>1 are displaying scale inhibition.
The scale inhibition performance of various compounds of Formula (I) and comparative compounds were compared at the same molar concentration. These compounds were tested at 60 μM concentration except where noted otherwise. Compound numbers are from Table 1.

[2] = system: planktonic microbial population of cooling tower water; experiment: time-kill biocidal efficacy, hybrid planktonic-sessile procedure: planktonic population; format: cell-based, natural mixed aerobic microbial population; details: for Planktonic, 20-24 h, % of Control / Planktonic, 48-54 h, % of Control / Planktonic, 120 h, % of Control / Planktonic CFU/10 mL, 20-24 h / Planktonic CFU/10 mL, 48-54 h / Planktonic CFU/10 mL, 120 h / Planktonic CFU/10 mL, Total / Planktonic, Total, % of Control / reduction in the total planktonic population / activity at 10 ppm: 10 ppm Compound B, others equimolar; for Planktonic, 20-24 h, % of Control / Planktonic, 48-54 h, % of Control / Planktonic, 120 h, % of Control / Planktonic CFU/10 mL, 20-24 h / Planktonic CFU/10 mL, 48-54 h / Planktonic CFU/10 mL, 120 h / Planktonic CFU/10 mL, Total / Planktonic, Total, % of Control / activity at 10 ppm: exposure 110 minutes; for Planktonic CFU/10 mL, 20-24 h: fast growing population; for Planktonic CFU/10 mL, 48-54 h: moderate growth rate population; for Planktonic CFU/10 mL, 120 h: slow growth rate population; for reduction in the total planktonic population: 110 minutes
Procedure: An experiment was conducted to assess biocidal effectiveness of Compounds A and B and their respective Compounds 13 and 1 anion analogs. Time-kill tests were conducted using a hybrid planktonic-sessile procedure which allowed assessment of biocidal effectiveness against both planktonic and sessile microbial populations. A natural mixed aerobic microbial population in samples collected from an operating cooling tower was used as inoculum for the test. Biocide test concentration for Compound B was 10 ppm. All other products were tested at the equivalent molar concentration. Biocide exposure was 110 minutes. The following procedure was used which generally followed the biocidal testing method of Walter, R. W. and Cooke, L. […] A New Multifunctional Biocide Which Enhances Corrosion Inhibition,” NACE Paper 410, 1997. A water sample was collected from a cooling tower that contained a natural mixed population of microorganisms that grew at different rates when plated on Petrifilm. The populations of cells that grew on Petrifilm in 20-24 hours, 48-54 hours and at 120 hours were treated as separate populations. […] The washers were allowed seven days to develop a biofilm on their surface. Prior to chemical treatment, 10 mL aliquots of the CTW were removed from the beaker and placed into individual exposure test tubes along with a single washer. Test compounds were then added to the individual tubes at equimolar concentrations. All exposure tests including untreated controls were conducted in triplicate (i.e., three washers in separate exposure tubes). After addition of the test compound, the tube was briefly mixed by mild vortexing and again occasionally throughout the exposure time. Determination of residual viable cell population in the bulk water: 1 mL of the water from the exposure tube was plated on petrifilm. A second 1 ml was added to 9 mL tube of Letheen broth and mixed by shaking 10 times. A 1 mL aliquot was plated on petrifilm, a second 1 mL aliquot was added to a 9 ml tube of Butterfields Broth and again shaken 10 times. This serial sequence of plating the dilution and subsequent 1/10 dilution was repeated through 10^-4 to 10^-5 dilution. Determination of colony forming units (CFU) at different incubation times: After plating the various solutions on Petrifilm, the films were incubated at 36° C. for the first 24 hours. At 20 hours the […] read and CFU were recorded. This population was defined as a fast growing population. The […] then incubated for additional time either at 36° C. or room temperature and read at 54 hours. This second population is in addition to the fast growth rate population and was defined as moderate growth rate organisms. Incubation was continued and the […] again after 120 hours. This third population was also treated as separate from the fast and moderate growth rate populations and is referred to as the slow growth rate population. As noted above, each compound was evaluated in triplicate with three separate washers and the results were averaged. Average CFU/mL values were used to calculate total planktonic test population (CFU/10 mL) and total sessile test population (CFU/washer) in each test system.

[3] = copper corrosion inhibition, ASTM G31-72 coupon weight loss
Procedure: (§1) Corrosion inhibition studies of various compounds of Formula (I) were conducted according to ASTM method G31-72 (2004). The following is the general test method.
(§2) Aqueous solutions of the test compound (900 mL) were prepared with city water for mild steel corrosion studies or a dilute sea salt solution (1000 ppm in deionized water) for copper corrosion studies. The solutions were magnetically stirred at a constant rate in a 1 L beaker and three coupons of either mild steel or copper were suspended in each beaker. After 5 days (steel) or 7 days (copper), the coupons were removed and cleaned according to ASTM method G1-03. Average weight loss was determined for each set of three coupons and then converted to corrosion rate in terms of mils per year (mpy).
The first test of copper corrosion inhibition compared Compound A with Compound 13 (from Table 1), 2-hydroxypropane-1,2,3-tricarboxylic acid, and a commercial inhibitor, Na-TAI.

[4] = mild steel corrosion inhibition, ASTM G31-72 coupon weight loss
Procedure: as §1, §2
These tests compare the corrosion inhibition of compounds of Formula (I), namely from Table 1, in the first set of comparisons, Compound A with Compound 13, and Compound B with Compound 1, and with 2-hydroxypropane-1,2,3-tricarboxylic acid. Thus five samples were tested relative to a blank and a standard, (1-hydroxyethan-1,1-diyl)bis(phosphonic acid), after 5 days at 26 μM concentrations. […] Concentrations were 26 μM.
Additional mild steel corrosion tests were performed at 130 μM concentration of compounds of Formula (I) and comparative compounds for 5 days. The next test compared the corrosion inhibition of Compound 8 with 2,3-dihydroxybutanedioic acid and Compound B, and Compound 4 with (1-hydroxyethan-1,1-diyl)bis(phosphonic acid) and Compound B. Also included was Compound 1 for reference. Concentrations in this set were 130 μM.

[5] = 130 μM, Table 5 (blank 12.5 mpy)
[6] = 5 days, 130 μM, Table 4 (blank 24 mpy)

| SMILES | Sr (supersaturation ratio) ([1]; 60 μM) | Planktonic, 20-24 h, % of Control ([2]; 20-24 h incubation) [%] | Planktonic, 48-54 h, % of Control ([2]; 48-54 h incubation) [%] | Planktonic, 120 h, % of Control ([2]; 120 h incubation) [%] | Planktonic CFU/10 mL, 20-24 h ([2]; 20-24 h incubation) [CFU/10 mL] | Planktonic CFU/10 mL, 48-54 h ([2]; 48-54 h incubation) | Planktonic CFU/10 mL, 120 h ([2]; 120 h incubation) | Planktonic CFU/10 mL, Total ([2]; total population) | Planktonic, Total, % of Control ([2]; total population) [%] | Inhibition relative to blank ([3]; 42 μM, Table 7) [%] | Inhibition relative to blank [4, 5] [%] | Inhibition relative to blank [4, 6] [%] | reduction in the total planktonic population [2] [%] | further results |
| --- | --- | --- | --- | --- | --- | --- | --- | --- | --- | --- | --- | --- | --- | --- |
| CCCCCCCCCCOCCCN.O=C(O)CC(O)(CC(=O)O)C(=O)O [Compound 1, 2-hydroxypropane-1,2,3-tricarboxylic acid salt of aminopropyloxydecane] | 1.4 | 97.9 | 90.3 | 28.4 | 970 | 340,000 CFU/10 mL | 2,280,000 CFU/10 mL | 2,620,000 CFU/10 mL | 31.1 | 54 | 87 | 88 |  | biocidal effectiveness compared with parent salt (in words) ([2]; planktonic and sessile populations, same experimental conditions and molar concentration): very similar (within experimental error) to those obtained with Compound B; Inhibition relative to blank ([4]; 5 days, 26 μM, Table 3): 60% |
| CCCCCCCCCCSCCN.Cl [Compound A, 2-(decylthio)ethanamine hydrochloride] | 1.0 |  |  |  | 940 | 13,500 CFU/10 mL | 227,000 CFU/10 mL | 241,000 CFU/10 mL |  |  |  |  | 97 | Sr (supersaturation ratio) ([1]; 64 μM): 1.2; activity at 10 ppm ([2]; 20-24 h incubation, read-out: Planktonic, 20-24 h, % of Control): 94.9%; activity at 10 ppm ([2]; 48-54 h incubation, read-out: Planktonic, 48-54 h, % of Control): 3.6%; activity at 10 ppm ([2]; 110 min, total population, read-out: Planktonic, Total, % of Control): 2.9%; activity at 10 ppm ([2]; 120 h incubation, read-out: Planktonic, 120 h, % of Control): 2.8%; Inhibition relative to blank ([3]; 7 days, 17 μM, Table 6): 41%; Inhibition relative to blank ([4]; 5 days, 26 μM, Table 3, hydrochloride): 3.3% and 3% |
| CC(=O)O.CCCCCCCCCCOCCCN [Compound B, ethanoic acid salt of aminopropyloxydecane] | 1.0 | 81.7 | 85.0 | 34.6 | 810 | 320,000 CFU/10 mL | 2,780,000 CFU/10 mL | 3,100,000 CFU/10 mL | 36.8 | 32 | −1 | −1 | 63 | scale inhibition (in words) ([1]; about 60 μM): no scale inhibition; Inhibition relative to blank ([4]; 5 days, 26 μM, Table 3, 26 µM): 1.6% and 2% |
